Common to all, as to experiment: ≥ marks a high value that may be exact or a test limit, other limits are often not marked, values filed in µg/mL are converted to µM
In assay [1] the test system is Vibrio cholerae PL91.
Assay [2] concerns Pseudomonas aeruginosa ATCC 10145.
Assay [3] relates to Escherichia coli NCLM 2064.
Assay [4] relates to Bacillus cereus NCLM 2156.
The test system of assay [5] is Staphylococcus aureus ATCC 25923.
The subject of assay [6] is Streptococcus pneumoniae.
Assay [7] concerns Acinetobacter baumannii ATCC 15308.
Assay [8] relates to Citrobacter sp.
In assay [9] the test system is Pseudomonas aeruginosa ATCC 15442.
For assay [10], the system named is Escherichia coli ATCC 25922.
Assay [11] relates to Staphylococcus aureus.
Assay [12] relates to Klebsiella pneumoniae.
For assay [13], the system named is Enterobacter cloacae.
Assay [14] concerns Staphylococcus aureus ATCC 29213.
The subject of assay [15] is Staphylococcus aureus RN4220.
The subject of assay [16] is Staphylococcus aureus NCTC 12493.
For assay [17], the system named is Staphylococcus aureus USA 300.
For assay [18], the system named is Klebsiella pneumoniae Q14-0285.
Assay [19] deals with Acinetobacter baumannii Q12-0867.
For assay [20], the system named is Salmonella typhimurium SL1344.
Assay [21] relates to Escherichia coli.
For assay [22], the system named is Campylobacter jejuni ATCC 33292.
Assay [23] concerns Klebsiella pneumoniae NCTC 13442.
In assay [24] the test system is Pseudomonas aeruginosa PAO1.
Assay [25] has as its system Acinetobacter baumannii Q12-0809.
Assay [26] deals with Klebsiella pneumoniae ATCC 700603.
Assay [27] deals with Staphylococcus aureus MRSA-15.
Assay [28] concerns Acinetobacter baumannii Q13-0717.
Assay [29] has as its system Pseudomonas aeruginosa Q14-0890.
The subject of assay [30] is Klebsiella pneumoniae Q14-0095.
For assay [31], the system named is Pseudomonas aeruginosa Q12-0535.
Assay [32] concerns Staphylococcus aureus Q14-0320.
The subject of assay [33] is Pseudomonas aeruginosa Q14-0208.
The test system of assay [34] is Enterococcus faecalis JH-2-2.
For assay [35], the system named is Staphylococcus aureus ATCC 33591.
Assay [36] relates to Pseudomonas aeruginosa ATCC 27853.
In assay [37] the test system is Campylobacter jejuni NCTC 11161.
For assay [38], the system named is Escherichia coli K-12.
Assay [39] concerns Listeria monocytogenes NCTC 11994.
Assay [40] relates to Campylobacter jejuni NCTC 11351.

Each structure is given as a SMILES string. Values after ≈ are worked out from the molar mass of the structure shown.

For orientation: MIC means the least concentration at which growth counts as inhibited. A higher MIC goes with a less susceptible organism. Take `CC[C@H](C)[C@H](NC(=O)[C@H](CCCCN)NC(=O)[C@@H](NC(=O)[C@H](CC(C)C)NC(=O)[C@@H]1CCCN1C(=O)CNC(=O)[C@H](Cc1ccccc1)NC(=O)[C@@H](N)Cc1ccccc1)[C@@H](C)CC)C(=O)N[C@@H](C)C(=O)N[C@H](C(=O)NCC(=O)N[C@H](C(=O)N[C@@H](CC(C)C)C(=O)N1CCC[C@H]1C(=O)N[C@@H](CC(N)=O)C(=O)N[C@@H](CC(C)C)C(=O)N[C@H](C(=O)N[C@H]1CSSC[C@@H](C(=O)O)NC(=O)[C@H](CCCCN)NC(=O)CNC(=O)[C@H](CC(C)C)NC(=O)[C@H](C)NC(=O)[C@H](CCCCN)NC1=O)[C@@H](C)CC)C(C)C)[C@@H](C)O` [FFGPLIKIATGVLPNLICKALGKC]: the MIC in assay [1] is at least 59.6 µM; in [2], at least 59.6 µM; in assay [3], 11.9 µM (≈ 30 µg/mL); in assay [4], at least 39.7 µM; in assay [5], above 59.6 µM.
Take `CC[C@H](C)[C@H](NC(=O)[C@H](CC(C)C)NC(=O)CNC(=O)CNC(=O)[C@H](CC(C)C)NC(=O)[C@@H](N)Cc1ccccc1)C(=O)N[C@@H](CCCCN)C(=O)N[C@@H](CCCCN)C(=O)N[C@@H](Cc1c[nH]c2ccccc12)C(=O)N1CCC[C@H]1C(=O)N[C@@H](Cc1c[nH]c2ccccc12)C(=O)N[C@@H](Cc1c[nH]c2ccccc12)C(=O)N1CCC[C@H]1C(=O)N[C@@H](Cc1c[nH]c2ccccc12)C(=O)N[C@@H](CCCN=C(N)N)C(=O)N[C@@H](CCCN=C(N)N)C(N)=O` [FLGGLIKKWPWWPWRR]: the MIC is 3.67 µM (≈ 7.81 µg/mL) in [6]; 14.7 µM (≈ 31.2 µg/mL) in [7]; at least 118 µM in [8]; 14.7 µM (≈ 31.2 µg/mL) in assay [9]; 3.67 µM (≈ 7.81 µg/mL) in assay [10]; 3.67 µM (≈ 7.81 µg/mL) in [5]. Besides, the MIC was 3.67 µM (≈ 7.81 µg/mL) in assay [11], above 118 µM in [12] and at least 118 µM in assay [13].
Regarding `CC(C)C[C@H](NC(=O)[C@H](CS)NC(=O)[C@H](CC(C)C)NC(=O)[C@H](CCCN=C(N)N)NC(=O)[C@H](Cc1c[nH]c2ccccc12)NC(=O)[C@@H]1CCCN1C(=O)[C@@H](NC(=O)[C@H](CCCN=C(N)N)NC(=O)[C@H](CCCN=C(N)N)NC(=O)[C@H](Cc1ccccc1)NC(=O)[C@H](CCCN=C(N)N)NC(=O)[C@H](C)NC(=O)[C@@H](NC(=O)[C@H](Cc1ccccc1)NC(=O)[C@H](CCCN=C(N)N)NC(=O)[C@@H](N)CC(N)=O)[C@@H](C)O)[C@@H](C)O)C(=O)N[C@@H](CCC(N)=O)C(=O)N[C@@H](Cc1ccccc1)C(=O)N[C@@H](CCCN=C(N)N)C(=O)N[C@@H](CCC(N)=O)C(=O)O` [NRFTARFRRTPWRLCLQFRQ], the MIC is 48.2 µM (≈ 128 µg/mL) in assay [14]; 12.1 µM (≈ 32 µg/mL) in assay [15]; 24.1 µM (≈ 64 µg/mL) in [16]; 24.1 µM (≈ 64 µg/mL) in assay [17]; 24.1 µM (≈ 64 µg/mL) in assay [18]; 3.02 µM (≈ 8 µg/mL) in [19]. Also, the MIC in assay [20] stood at 24.1 µM (≈ 64 µg/mL); in assay [21] it was 48.2 µM (≈ 128 µg/mL); in [22] it was 24.1 µM (≈ 64 µg/mL); in assay [23], 12.1 µM (≈ 32 µg/mL); in assay [24], 12.1 µM (≈ 32 µg/mL); in [25], 6.03 µM (≈ 16 µg/mL). Moreover, the MIC in assay [26] was 12.1 µM (≈ 32 µg/mL); in assay [27], 12.1 µM (≈ 32 µg/mL); in assay [28], 12.1 µM (≈ 32 µg/mL); in [29], 6.03 µM (≈ 16 µg/mL); in [30], 12.1 µM (≈ 32 µg/mL); in assay [31], at least 48.2 µM. The minimal inhibitory concentration (MIC) in assay [32] is at least 48.2 µM; in assay [33], 12.1 µM (≈ 32 µg/mL); in assay [34] it was 24.1 µM (≈ 64 µg/mL); in assay [35] it was 24.1 µM (≈ 64 µg/mL); in assay [36] it was 48.2 µM (≈ 128 µg/mL); in assay [37] it was at least 96.5 µM. The MIC in [38] is 24.1 µM (≈ 64 µg/mL); in assay [39], 12.1 µM (≈ 32 µg/mL); in assay [40] it was at least 48.2 µM.

The values above are taken from DBAASP.
